System: H1819
Assay: Cell viability dose-response, H1819
Format: cell-based, human
Conditions: Homo sapiens, NCI-H1819, 12-point dose-response starting at 50 micromolar, 3-fold increments, in duplicate; read-out: toxicity data, H1819
Procedure: (§1) FIG. 6A. […] Cell viability is plotted vs. compound concentration. Compound was added to cells plated at 15% confluence in 96-well plates in RPMI-1640 media supplemented with 5% Fetal Bovine Serum and 2 mM L-Glutamine. After 4 days of incubation, ATP levels were measured using Cell Titer Glo (Promega). Data are presented as the average of 2 replicates ±SEM.
(§2) Selectivity may be measured by the half maximal inhibitory concentration (IC50), which, as used herein, is a measure of the effectiveness of a compound in killing cells. This quantitative measure indicates how much of a particular compound is needed to kill a particular cell population by half (e.g., as indicated by the amount of ATP). […] The IC50 can be determined by constructing a dose-response curve. The lower the IC50, the higher the potency, and the greater the difference between IC50 values for different cell lines (e.g., sensitive lines vs. insensitive lines, and sensitive lines vs. normal lines) the greater the selectivity. […]
(§3) With this information, we synthesized and tested a series of small molecules derived in conception from the oxalamide and chromone scaffold including N-acyl ureas, as shown in Tables 6-8. Each compound was tested in a 12-point dose-response study starting at 50 micromolar and decreasing in 3-fold increments to sub-nanomolar concentrations, in duplicate. Additionally, one or more additional cell line was tested in the same way.

SMILES	IC50 [µM]
COc1ccc(CCNC(=O)c2ccc3cccc(F)c3n2)cc1 [SW208055-1-A]	≥ 49.5
COc1ccc(CCNC(=O)c2ccc3cccc(O)c3n2)cc1 [SW208056-1-A]	29.8
COc1ccc(CCNC(=O)c2ccc3ccc(Br)cc3n2)cc1 [SW208057-1-A]	34.9
COc1ccc(CCNC(=O)C(=O)N2Cc3ccccc3C2)cc1 [SW208058-1-A]	≥ 49.5
COc1ccc(CCNC(=O)C(=O)N2CCc3ccccc32)cc1 [SW208059-1-A]	≥ 49.5
COc1ccc(CCNC(=O)C(=O)N2CCc3ccccc3C2)cc1 [SW208060-1-A]	≥ 49.5
CCOc1ccc(CCNC(=O)C(=O)Nc2ccc(Cl)cc2)cc1 [SW208061-1-A]	≥ 49.5
COc1ccc(CCNC(=O)c2nc3ccccc3c(=O)[nH]2)cc1 [SW208063-1-A]	≥ 49.5
C#CCOc1ccc(C(=O)c2ccc(NC(=O)C(=O)NCCc3ccc(OC)cc3)cc2)cc1 [SW208108-1-A]	≥ 49.5
COc1ccc(C(=O)c2ccc(NC(=O)C(=O)NCCc3ccc(O)cc3)cc2)cc1 [SW208117-1-A]	15.6
COc1ccc(CCCNC(=O)NCc2ccccc2)cc1 [SW208120-1-A]	≥ 49.5
COc1ccc(CCCNC(=O)NCc2ccc(Cl)cc2)cc1 [SW208121-1-A]	5.75
COc1ccc(CCNC(=O)C(=O)Nc2ccccn2)cc1 [SW208122-1-A]	≥ 49.5
COc1ccc(CCNC(=O)C(=O)Nc2ccc(Cl)cn2)cc1 [SW208123-1-A]	46.3
COc1ccc(CCNC(=O)c2ccc3ccccc3c2O)cc1 [SW208124-1-A]	34.1
COc1ccc(CCNC(=O)c2nc3ccccc3o2)cc1 [SW208125-1-A]	≥ 49.5
COc1ccc(CCNC(=O)C(=O)Nc2cccc(Br)n2)cc1 [SW208126-1-A]	≥ 49.5
COc1ccc(CCNC(=O)C(=O)Nc2ccc(Cl)nc2)cc1 [SW208127-1-A]	≥ 49.5
COc1ccc(CCNC(=O)C(=O)Nc2ccc(Br)cn2)cc1 [SW208128-1-A]	≥ 49.5
COc1ccc(CCNC(=O)C(=O)NN2CCCCC2)cc1 [SW208129-1-A]	≥ 49.5

SMILES	IC50 [µM]
COc1ccc(CCNC(=O)C(=O)CNc2ccncc2)cc1 [SW208130-1-A]	≥ 49.5
COc1ccc(CCNC(=O)C(=O)NN2CCN(C)CC2)cc1 [SW208131-1-A]	≥ 49.5
COc1ccc(CCNC(=O)C(=O)O)cc1 [SW208132-1-A]	≥ 49.5
COc1ccc(CCNC(=O)C(=O)Nc2cccnc2F)cc1 [SW208133-1-A]	≥ 49.5
COc1ccc(CCNC(=O)C(=O)Nc2cnccc2C)cc1 [SW208134-1-A]	≥ 49.5
COc1ccc(CCNC(=O)C(=O)Nc2ccncc2)cc1 [SW208135-1-A]	≥ 49.5
COc1ccc(CCNC(=O)C(=O)Nc2cnccn2)cc1 [SW208137-1-A]	≥ 49.5
COc1ccc(CCNC(=O)C(=O)Nc2ccnc(C)c2)cc1 [SW208138-1-A]	≥ 49.5
COc1ccc(CCNC(=O)C(=O)Nc2cncc(Cl)c2)cc1 [SW208139-1-A]	≥ 49.5
COc1ccc(CCNC(=O)C(=O)Nc2cncc(C)c2)cc1 [SW208140-1-A]	16.5
COc1ccc(CCNC(=O)C(=O)Nc2ccc(C(=O)c3ccc(O)cc3)cc2)cc1 [SW208141-1-A]	≥ 49.5
COc1ccc(CCNC(=O)NC(=O)c2ccccc2)cc1 [SW208142-1-A]	≥ 49.5
COc1ccc(CCNC(=O)C(=O)Nc2cccnc2C)cc1 [SW208143-1-A]	≥ 49.5
COc1ccc(CCNC(=O)C(=O)Nc2cc(C)cnc2Cl)cc1 [SW208144-1-A]	≥ 49.5
COc1ccc(CCNC(=O)C(=O)c2ccccc2)cc1 [SW208145-1-A]	≥ 49.5
COc1ccc(CCNC(=O)C(=O)Oc2ccccc2)cc1 [SW208147-1-A]	≥ 49.5
COc1ccc(CCNC(=O)C(=O)Oc2ccc(Cl)cc2)cc1 [SW208148-1-A]	≥ 49.5
COc1ccc(CCCNC(=O)C(=O)c2ccccc2)cc1 [SW208152-1-A]	≥ 49.5
COc1ccc(CCN(C)C(=O)C(=O)Nc2ccc(Cl)cc2)cc1 [SW208153-1-A]	≥ 49.5
COc1ccc(CCNC(=O)C(=O)Nc2cccc(F)n2)cc1 [SW209136-1-A]	≥ 49.5

Same assay, conditions: Homo sapiens, NCI-H1819, Tables 3 and 4; read-out: IC50 (uM) vs indicated non-small cell lung cancer cell line H1819

SMILES	IC50 [µM]
COc1ccc2nc(NC(=O)c3ccc([C@@H](N)c4ccccc4)cc3)sc2c1 [SW208109]	7.75
COc1ccc2nc(NC(=O)c3ccc([C@H](N)c4ccccc4)cc3)sc2c1 [SW208110]	5.97
CCCOc1ccc2nc(NC(=O)c3ccc(C(=O)c4ccccc4)cc3)sc2c1 [SW208186]	13
C#CCOc1ccc2nc(NC(=O)c3ccc(C(=O)c4ccc(OC)cc4)cc3)sc2c1 [SW208187]	0.697

Same assay, conditions: Homo sapiens, NCI-H1819, read-out: toxicity data, H1819

SMILES	IC50 [µM]
O=C(NCc1ccccc1)NCc1ccccc1 [SW208062-1-A]	≥ 49.5

Same assay, conditions: Homo sapiens, NCI-H1819; Table 8; 12-point dose-response starting at 50 micromolar

SMILES	AC50 [µM]
O=c1c(Cc2ccc(C(F)(F)F)cc2)coc2cc(OCc3cnn(-c4ccccc4)c3)ccc12 [SW209185-1]	28.6
O=c1c(Cc2cccc(C(F)(F)F)c2)coc2cc(OCc3cnn(-c4ccccc4)c3)ccc12 [SW209186-1]	49.5

System: H2122
Assay: Cell viability dose-response, H2122
Format: cell-based, human
Conditions: Homo sapiens, NCI-H2122, 12-point dose-response starting at 50 micromolar, 3-fold increments, in duplicate; read-out: toxicity data, H2122
Procedure: as §1, §2, §3

SMILES	IC50 [µM]
COc1ccc(CCNC(=O)c2ccc3cccc(F)c3n2)cc1 [SW208055-1-A]	≥ 49.5
COc1ccc(CCNC(=O)c2ccc3cccc(O)c3n2)cc1 [SW208056-1-A]	30.2
COc1ccc(CCNC(=O)c2ccc3ccc(Br)cc3n2)cc1 [SW208057-1-A]	≥ 49.5
COc1ccc(CCNC(=O)C(=O)N2Cc3ccccc3C2)cc1 [SW208058-1-A]	≥ 49.5
COc1ccc(CCNC(=O)C(=O)N2CCc3ccccc32)cc1 [SW208059-1-A]	≥ 49.5
COc1ccc(CCNC(=O)C(=O)N2CCc3ccccc3C2)cc1 [SW208060-1-A]	≥ 49.5
CCOc1ccc(CCNC(=O)C(=O)Nc2ccc(Cl)cc2)cc1 [SW208061-1-A]	≥ 49.5
O=C(NCc1ccccc1)NCc1ccccc1 [SW208062-1-A]	≥ 49.5
COc1ccc(CCNC(=O)c2nc3ccccc3c(=O)[nH]2)cc1 [SW208063-1-A]	≥ 49.5
C#CCOc1ccc(C(=O)c2ccc(NC(=O)C(=O)NCCc3ccc(OC)cc3)cc2)cc1 [SW208108-1-A]	0.028
COc1ccc(C(=O)c2ccc(NC(=O)C(=O)NCCc3ccc(O)cc3)cc2)cc1 [SW208117-1-A]	0.031
COc1ccc(CCCNC(=O)NCc2ccccc2)cc1 [SW208120-1-A]	38.9
COc1ccc(CCCNC(=O)NCc2ccc(Cl)cc2)cc1 [SW208121-1-A]	3.67
COc1ccc(CCNC(=O)C(=O)Nc2ccccn2)cc1 [SW208122-1-A]	45
COc1ccc(CCNC(=O)C(=O)Nc2ccc(Cl)cn2)cc1 [SW208123-1-A]	0.348
COc1ccc(CCNC(=O)c2ccc3ccccc3c2O)cc1 [SW208124-1-A]	36.2
COc1ccc(CCNC(=O)c2nc3ccccc3o2)cc1 [SW208125-1-A]	30.4
COc1ccc(CCNC(=O)C(=O)Nc2cccc(Br)n2)cc1 [SW208126-1-A]	≥ 49.5
COc1ccc(CCNC(=O)C(=O)Nc2ccc(Cl)nc2)cc1 [SW208127-1-A]	0.438
COc1ccc(CCNC(=O)C(=O)Nc2ccc(Br)cn2)cc1 [SW208128-1-A]	0.289
COc1ccc(CCNC(=O)C(=O)NN2CCCCC2)cc1 [SW208129-1-A]	≥ 49.5

SMILES	IC50 [µM]
COc1ccc(CCNC(=O)C(=O)CNc2ccncc2)cc1 [SW208130-1-A]	≥ 49.5
COc1ccc(CCNC(=O)C(=O)NN2CCN(C)CC2)cc1 [SW208131-1-A]	≥ 49.5
COc1ccc(CCNC(=O)C(=O)O)cc1 [SW208132-1-A]	≥ 49.5
COc1ccc(CCNC(=O)C(=O)Nc2cccnc2F)cc1 [SW208133-1-A]	≥ 49.5
COc1ccc(CCNC(=O)C(=O)Nc2cnccc2C)cc1 [SW208134-1-A]	≥ 49.5
COc1ccc(CCNC(=O)C(=O)Nc2ccncc2)cc1 [SW208135-1-A]	≥ 49.5
COc1ccc(CCNC(=O)C(=O)Nc2cnccn2)cc1 [SW208137-1-A]	≥ 49.5
COc1ccc(CCNC(=O)C(=O)Nc2ccnc(C)c2)cc1 [SW208138-1-A]	≥ 49.5
COc1ccc(CCNC(=O)C(=O)Nc2cncc(Cl)c2)cc1 [SW208139-1-A]	5.88
COc1ccc(CCNC(=O)C(=O)Nc2cncc(C)c2)cc1 [SW208140-1-A]	2.62
COc1ccc(CCNC(=O)C(=O)Nc2ccc(C(=O)c3ccc(O)cc3)cc2)cc1 [SW208141-1-A]	≥ 49.5
COc1ccc(CCNC(=O)NC(=O)c2ccccc2)cc1 [SW208142-1-A]	1.09
COc1ccc(CCNC(=O)C(=O)Nc2cccnc2C)cc1 [SW208143-1-A]	≥ 49.5
COc1ccc(CCNC(=O)C(=O)Nc2cc(C)cnc2Cl)cc1 [SW208144-1-A]	≥ 49.5
COc1ccc(CCNC(=O)C(=O)c2ccccc2)cc1 [SW208145-1-A]	≥ 49.5
COc1ccc(CCNC(=O)C(=O)Oc2ccccc2)cc1 [SW208147-1-A]	2.07
COc1ccc(CCNC(=O)C(=O)Oc2ccc(Cl)cc2)cc1 [SW208148-1-A]	7.17
COc1ccc(CCCNC(=O)C(=O)c2ccccc2)cc1 [SW208152-1-A]	15.2
COc1ccc(CCN(C)C(=O)C(=O)Nc2ccc(Cl)cc2)cc1 [SW208153-1-A]	10.5
COc1ccc(CCNC(=O)C(=O)Nc2cccc(F)n2)cc1 [SW209136-1-A]	≥ 49.5

Same assay, conditions: Homo sapiens, NCI-H2122, Table 8; 12-point dose-response starting at 50 micromolar

SMILES	AC50 [µM]
O=c1c(Cc2ccc(C(F)(F)F)cc2)coc2cc(OCc3cnn(-c4ccccc4)c3)ccc12 [SW209185-1]	0.085
O=c1c(Cc2cccc(C(F)(F)F)c2)coc2cc(OCc3cnn(-c4ccccc4)c3)ccc12 [SW209186-1]	0.047

Same assay, conditions: Homo sapiens, NCI-H2122, Table 9, competitor; read-out: IC50 to H2122 cells

SMILES	IC50 [µM]
COc1ccc(C(=O)c2ccc(NC(=O)C(=O)NCCc3ccc(O)cc3)cc2)cc1 [SW208117-1-A]	0.0244

Same assay, conditions: Homo sapiens, NCI-H2122, Tables 3 and 4; read-out: IC50 (uM) vs indicated non-small cell lung cancer cell line H2122

SMILES	IC50 [µM]
COc1ccc2nc(NC(=O)c3ccc([C@@H](N)c4ccccc4)cc3)sc2c1 [SW208109]	0.067
COc1ccc2nc(NC(=O)c3ccc([C@H](N)c4ccccc4)cc3)sc2c1 [SW208110]	0.012
CCCOc1ccc2nc(NC(=O)c3ccc(C(=O)c4ccccc4)cc3)sc2c1 [SW208186]	0.107
C#CCOc1ccc2nc(NC(=O)c3ccc(C(=O)c4ccc(OC)cc4)cc3)sc2c1 [SW208187]	0.288

Source: patent US9789096B2, “Methods and compositions for selective and targeted cancer therapy” (Board of Regents of the University of Texas System, priority 2013, dated 2017)
